Experimental data published in ChEMBL document CHEMBL1201862, “PubChem BioAssay data set” (2004).
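Compound exposure: 48 hours, 5 concentrations, 96-well plates. The concentration for 50% growth inhibition is given as GI50.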 The source made the active and inactive calls. Rule as the data show it: active = GI50 up to about 1.1 µM and inactive = higher.

Key:
Assay in all cases: inhibition of tumour cell growth, NCI panel, 48 h
[1] = system: BT-549
[2] = system: NCI-H226
[3] = system: SNB-19
[4] = system: CAKI-1
[5] = system: IGROV-1
[6] = system: A498
[7] = system: A549
[8] = system: COLO 205
[9] = system: CCRF-CEM
[10] = system: PC-3
[11] = system: NCI/ADR-RES
[12] = system: MDA-MB-435
[13] = system: Malme-3M
[14] = system: OVCAR-5
[15] = system: HCC 2998
[16] = system: OVCAR-3
[17] = system: EKVX
[18] = system: RPMI-8226
[19] = system: RXF 393

Structure (SMILES) | GI50 [1] | GI50 [2] | GI50 [3] | GI50 [4] | GI50 [5] | GI50 [6] | GI50 [7] | GI50 [8] | GI50 [9] | GI50 [10] | GI50 [11] | GI50 [12] | GI50 [13] | GI50 [14] | GI50 [15] | GI50 [16] | GI50 [17] | GI50 [18] | GI50 [19]
Cc1ncc([N+](=O)[O-])n1CCNC(=O)Cn1c([N+](=O)[O-])cnc1C | > 100 µM (inactive) | > 100 µM (inactive) | > 100 µM (inactive) | > 100 µM (inactive) | > 100 µM (inactive) | > 100 µM (inactive) | > 100 µM (inactive) | > 100 µM (inactive) | > 100 µM (inactive) | > 100 µM (inactive) | > 100 µM (inactive) | > 100 µM (inactive) | > 100 µM (inactive) | > 100 µM (inactive) | > 100 µM (inactive) | > 100 µM (inactive) | – | – | –
CC(C)(C)c1cc(Br)c(O)c(CN(Cc2cc(C(C)(C)C)cc(Br)c2O)C2CCCCC2)c1 | 15.8 µM (inactive) | 15.6 µM (inactive) | 14.1 µM (inactive) | 12.3 µM (inactive) | 15.3 µM (inactive) | 13.5 µM (inactive) | 14.1 µM (inactive) | 11.2 µM (inactive) | 13.3 µM (inactive) | 14.9 µM (inactive) | 12 µM (inactive) | 14.3 µM (inactive) | 11.8 µM (inactive) | 15.7 µM (inactive) | – | 11.9 µM (inactive) | 14.8 µM (inactive) | 11.8 µM (inactive) | 10.7 µM (inactive)
CCN1CN(c2ccccc2)C2(CCN(CC3COc4ccccc4O3)CC2)C1=O (stereo not given) | 16 µM (inactive) | 24 µM (inactive) | 36.2 µM (inactive) | 43 µM (inactive) | 53.7 µM (inactive) | 22.6 µM (inactive) | 36.6 µM (inactive) | 15.7 µM (inactive) | 18.4 µM (inactive) | 25.3 µM (inactive) | 37.2 µM (inactive) | 23.3 µM (inactive) | 16.9 µM (inactive) | 24.3 µM (inactive) | – | 31.2 µM (inactive) | – | 17.4 µM (inactive) | 15.5 µM (inactive)
COc1cccc(/C=C/c2cnc3ccccc3n2)c1OC | 17.4 µM (inactive) | 37.2 µM (inactive) | – | 45.2 µM (inactive) | 39.1 µM (inactive) | 40.4 µM (inactive) | 40.7 µM (inactive) | 48.3 µM (inactive) | 35.6 µM (inactive) | 25.1 µM (inactive) | 18.5 µM (inactive) | 32 µM (inactive) | 34.5 µM (inactive) | 72.6 µM (inactive) | – | 37.2 µM (inactive) | 33 µM (inactive) | 41.8 µM (inactive) | 21.8 µM (inactive)
O=C1Nc2ccccc2/C1=N/Nc1nc(-c2ccc([N+](=O)[O-])cc2)cs1 | 15.6 µM (inactive) | 38.9 µM (inactive) | 44.1 µM (inactive) | 17.9 µM (inactive) | 18.7 µM (inactive) | – | 30.1 µM (inactive) | 44.2 µM (inactive) | – | 24 µM (inactive) | 15.6 µM (inactive) | 24.7 µM (inactive) | – | 22 µM (inactive) | 21.9 µM (inactive) | 30.8 µM (inactive) | 61 µM (inactive) | – | –
O=[N+]([O-])c1nccn1CCCNCCCn1ccnc1[N+](=O)[O-] | > 100 µM (inactive) | > 100 µM (inactive) | – | > 100 µM (inactive) | > 100 µM (inactive) | > 100 µM (inactive) | > 100 µM (inactive) | > 100 µM (inactive) | > 100 µM (inactive) | > 100 µM (inactive) | > 100 µM (inactive) | > 100 µM (inactive) | 36.6 µM (inactive) | > 100 µM (inactive) | – | > 100 µM (inactive) | > 100 µM (inactive) | > 100 µM (inactive) | > 100 µM (inactive)
O=C1CN(c2ccccc2)C(=O)CN1NCNN1CC(=O)N(c2ccccc2)CC1=O | > 100 µM (inactive) | – | > 100 µM (inactive) | > 100 µM (inactive) | > 100 µM (inactive) | > 100 µM (inactive) | > 100 µM (inactive) | > 100 µM (inactive) | > 100 µM (inactive) | > 100 µM (inactive) | – | > 100 µM (inactive) | > 100 µM (inactive) | > 100 µM (inactive) | > 100 µM (inactive) | > 100 µM (inactive) | > 100 µM (inactive) | > 100 µM (inactive) | > 100 µM (inactive)
Cc1ccc(S(=NS(=O)(=O)c2ccc(C)cc2)c2ccc(C)cc2)cc1 | > 100 µM (inactive) | > 100 µM (inactive) | > 100 µM (inactive) | – | – | – | 62.5 µM (inactive) | 54.7 µM (inactive) | 57 µM (inactive) | 64 µM (inactive) | 38.7 µM (inactive) | 60.3 µM (inactive) | > 100 µM (inactive) | > 100 µM (inactive) | – | 76 µM (inactive) | 86.5 µM (inactive) | > 100 µM (inactive) | 81.8 µM (inactive)
S=c1[nH]n2c(CCCCCCCCc3nnc4sc(=S)[nH]n34)nnc2s1 | > 100 µM (inactive) | > 100 µM (inactive) | > 100 µM (inactive) | > 100 µM (inactive) | > 100 µM (inactive) | > 100 µM (inactive) | > 100 µM (inactive) | > 100 µM (inactive) | 83 µM (inactive) | > 100 µM (inactive) | > 100 µM (inactive) | > 100 µM (inactive) | > 100 µM (inactive) | > 100 µM (inactive) | > 100 µM (inactive) | > 100 µM (inactive) | > 100 µM (inactive) | > 100 µM (inactive) | –
COC(=O)C1=C(CCCCO[Si](C)(C)C(C)(C)C)NC(=O)N2[C@@H](CCOCc3ccccc3)CC[C@H]12 | 20.5 µM (inactive) | – | 23.6 µM (inactive) | 16.8 µM (inactive) | – | 53 µM (inactive) | 14.8 µM (inactive) | 18 µM (inactive) | 17.9 µM (inactive) | 21.1 µM (inactive) | 15.3 µM (inactive) | 24 µM (inactive) | 19.4 µM (inactive) | 33.1 µM (inactive) | 24.4 µM (inactive) | 13.4 µM (inactive) | 15.8 µM (inactive) | 23.4 µM (inactive) | –
CC(=O)N1C(Nc2nccs2)CCN1c1ccccc1 (stereo not given) | > 10 µM (inactive) | > 10 µM (inactive) | > 10 µM (inactive) | > 10 µM (inactive) | > 10 µM (inactive) | – | > 10 µM (inactive) | > 10 µM (inactive) | > 10 µM (inactive) | > 10 µM (inactive) | > 10 µM (inactive) | > 10 µM (inactive) | > 10 µM (inactive) | > 10 µM (inactive) | > 10 µM (inactive) | > 10 µM (inactive) | > 10 µM (inactive) | > 10 µM (inactive) | > 10 µM (inactive)
COc1ccc(/C=c2/sc3n(c2=O)C(c2ccccc2)C2(O)CCCCC2N=3)cc1 (stereo not given) | > 12.5 µM (inactive) | > 12.5 µM (inactive) | > 12.5 µM (inactive) | > 12.5 µM (inactive) | > 12.5 µM (inactive) | – | > 12.5 µM (inactive) | – | > 12.5 µM (inactive) | > 12.5 µM (inactive) | – | > 12.5 µM (inactive) | > 12.5 µM (inactive) | > 12.5 µM (inactive) | > 12.5 µM (inactive) | > 12.5 µM (inactive) | – | > 12.5 µM (inactive) | –
N#CCC1(c2ccc(Cl)cc2)NC(=O)c2ccccc21 (stereo not given) | > 100 µM (inactive) | > 100 µM (inactive) | > 100 µM (inactive) | > 100 µM (inactive) | > 100 µM (inactive) | > 100 µM (inactive) | > 100 µM (inactive) | > 100 µM (inactive) | > 100 µM (inactive) | > 100 µM (inactive) | > 100 µM (inactive) | > 100 µM (inactive) | > 100 µM (inactive) | > 100 µM (inactive) | – | > 100 µM (inactive) | > 100 µM (inactive) | > 100 µM (inactive) | > 100 µM (inactive)
CCN(CC)CCOc1ccccc1/C=C/c1noc2ccccc12 | 16.3 µM (inactive) | 16.3 µM (inactive) | 13.6 µM (inactive) | 12.8 µM (inactive) | 9.91 µM (inactive) | 17.2 µM (inactive) | – | 6.21 µM (inactive) | 15.2 µM (inactive) | 4.89 µM (inactive) | 19 µM (inactive) | – | 1.01 µM (active) | 12.5 µM (inactive) | 5.79 µM (inactive) | 14.7 µM (inactive) | 15.2 µM (inactive) | – | 2.75 µM (inactive)
Cc1cc(C)c2nccc(NCCCN(C)C)c2c1[N+](=O)[O-] | 35.5 µM (inactive) | – | > 100 µM (inactive) | 32.2 µM (inactive) | 19.6 µM (inactive) | 59 µM (inactive) | 30.8 µM (inactive) | 14.8 µM (inactive) | 37.2 µM (inactive) | 20.6 µM (inactive) | – | 29.6 µM (inactive) | 19.3 µM (inactive) | 44 µM (inactive) | 22.8 µM (inactive) | 35.5 µM (inactive) | 64 µM (inactive) | 34.6 µM (inactive) | 19.5 µM (inactive)
COc1cc(C2S/C(=C/c3ccccc3)C(=O)N2c2cccc(Cl)c2)cc(OC)c1OC (stereo not given) | 28.6 µM (inactive) | 93.5 µM (inactive) | 42.9 µM (inactive) | 30.8 µM (inactive) | 56.9 µM (inactive) | 69.7 µM (inactive) | 78.3 µM (inactive) | > 100 µM (inactive) | 25.6 µM (inactive) | 51.8 µM (inactive) | 34.5 µM (inactive) | 22.2 µM (inactive) | – | > 100 µM (inactive) | 46.1 µM (inactive) | 30.1 µM (inactive) | 37.2 µM (inactive) | 24.8 µM (inactive) | –
